Source: PubChem BioAssay (NCI)
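These data come from cells grown in 96-well plates and exposed to compound for 48 hours at five concentrations. Abbreviation: GI50, concentration required for 50% inhibition of growth. The concentration for full growth arrest is given as TGI.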

How the values were obtained:
Experiment in all cases: inhibition of tumour cell growth, NCI panel, 48 h
[1] = system: IGROV1 ovarian
[2] = system: RPMI-8226 leukemia
[3] = system: DU-145 prostate
[4] = system: SF-268 CNS
[5] = system: HCT-15 colon
[6] = system: KM12 colon
[7] = system: SK-MEL-28 melanoma
[8] = system: SK-MEL-5 melanoma
[9] = system: OVCAR-8 ovarian
[10] = system: HCC-2998 colon
[11] = system: MDA-MB-435
[12] = system: SK-OV-3 ovarian
[13] = system: ACHN renal
[14] = system: HCT-116 colon
[15] = system: SNB-19 CNS
[16] = system: SN12C renal
[17] = system: MOLT-4 leukemia
[18] = system: EKVX NSCLC
[19] = system: UACC-62 melanoma
[20] = system: CCRF-CEM leukemia
[21] = system: OVCAR-3 ovarian
[22] = system: NCI/ADR-RES ovarian
[23] = system: OVCAR-4 ovarian
[24] = system: MCF7 breast
[25] = system: SF-295 CNS
[26] = system: HL-60(TB) leukemia
[27] = system: SK-MEL-2 melanoma
[28] = system: CAKI-1 renal
[29] = system: HT29 colon
[30] = system: SF-539 CNS
[31] = system: HS 578T breast
[32] = system: UO-31 renal
[33] = system: NCI-H522 lung
[34] = system: SR leukemia
[35] = system: PC-3 prostate
[36] = system: OVCAR-5 ovarian
[37] = system: UACC-257 melanoma
[38] = system: 786-0 renal
[39] = system: LOX IMVI melanoma
[40] = system: NCI-H23 lung
[41] = system: NCI-H460 lung
[42] = system: SW-620 colon
[43] = system: A498 renal
[44] = system: HOP-92 NSCLC
[45] = system: MDA-MB-231 breast
[46] = system: HOP-62 NSCLC
[47] = system: M14 melanoma
[48] = system: NCI-H226 lung
[49] = system: MALME-3M melanoma
[50] = system: K-562 leukemia
[51] = system: BT-549 breast
[52] = system: A549 NSCLC
[53] = system: SNB-75 CNS
[54] = system: T-47D breast
[55] = system: TK-10 renal
[56] = system: U251 CNS
[57] = system: COLO 205 colon

## O=C(CCCCCCNC(=O)C(O)(O)C(F)(F)F)Nc1nc2ccccc2s1
[1]
  GI50: 4.87 µM
  TGI: 16.4 µM
[2]
  GI50: 2730 nM
  TGI: > 29.8 µM
[3]
  GI50: 4.99 µM
  TGI: > 29.8 µM
[4]
  GI50: 7.69 µM
  TGI: > 29.8 µM
[5]
  GI50: 5.8 µM
  TGI: 19.1 µM
[6]
  GI50: 5.84 µM
  TGI: > 29.8 µM
[7]
  GI50: 3.76 µM
  TGI: > 29.8 µM
[8]
  GI50: 4.08 µM
  TGI: 8.13 µM
[9]
  GI50: 2860 nM
  TGI: > 29.8 µM
[10]
  GI50: 5.75 µM
  TGI: 16.8 µM
[11]
  GI50: 4.36 µM
  TGI: 23.5 µM
[12]
  GI50: 2270 nM
  TGI: 12.6 µM
[13]
  GI50: 3.59 µM
  TGI: 17.3 µM
[14]
  GI50: 1230 nM
  TGI: > 29.8 µM
[15]
  GI50: 6.49 µM
  TGI: > 29.8 µM
[16]
  GI50: 6.39 µM
  TGI: > 29.8 µM
[17]
  GI50: 1210 nM
  TGI: > 29.8 µM
[18]
  GI50: 6.39 µM
  TGI: > 29.8 µM
[19]
  GI50: 1610 nM
  TGI: 6.76 µM
[20]
  GI50: 2010 nM
  TGI: > 29.8 µM
[21]
  GI50: 3.17 µM
  TGI: 8.39 µM
[22]
  GI50: 3.4 µM
  TGI: 16.7 µM
[23]
  GI50: 11 µM
  TGI: > 29.8 µM
[24]
  GI50: 6.59 µM
  TGI: > 29.8 µM
[25]
  GI50: 3.43 µM
  TGI: 8.88 µM
[26]
  GI50: 1850 nM
  TGI: > 29.8 µM
[27]
  GI50: 4.43 µM
  TGI: 21 µM
[28]
  GI50: 6.99 µM
  TGI: > 29.8 µM
[29]
  GI50: 3.75 µM
  TGI: > 29.8 µM
[30]
  GI50: 6.56 µM
  TGI: > 29.8 µM
[31]
  GI50: 3.57 µM
  TGI: > 29.8 µM
[32]
  GI50: 2010 nM
  TGI: 15.9 µM
[33]
  GI50: 2760 nM
  TGI: 14.7 µM
[34]
  GI50: 1230 nM
  TGI: > 29.8 µM
[35]
  GI50: 5.01 µM
  TGI: > 29.8 µM
[36]
  GI50: 2330 nM
  TGI: 15 µM
[37]
  GI50: 6.56 µM
  TGI: > 29.8 µM
[38]
  GI50: 6.4 µM
  TGI: > 29.8 µM
[39]
  GI50: 3.41 µM
  TGI: 7.75 µM
[40]
  GI50: 4.94 µM
  TGI: 25.9 µM
[41]
  GI50: 2980 nM
  TGI: > 29.8 µM
[42]
  GI50: 2080 nM
  TGI: 11 µM
[43]
  GI50: 1510 nM
  TGI: 12.5 µM
[44]
  GI50: 751 nM
  TGI: 8.28 µM
[45]
  GI50: 3.59 µM
  TGI: 22.1 µM
[46]
  GI50: 4.29 µM
  TGI: > 29.8 µM
[47]
  GI50: 6.4 µM
  TGI: > 29.8 µM
[48]
  GI50: 9.61 µM
  TGI: > 29.8 µM
[49]
  GI50: 1490 nM
  TGI: 13 µM
[50]
  GI50: 1700 nM
  TGI: > 29.8 µM
[51]
  GI50: 7.06 µM
  TGI: > 29.8 µM
[52]
  GI50: 7.99 µM
  TGI: > 29.8 µM
[53]
  GI50: 1670 nM
  TGI: > 29.8 µM
[54]
  GI50: 2240 nM
  TGI: 22.8 µM
[55]
  GI50: 1170 nM
  TGI: > 29.8 µM
[56]
  GI50: 4.32 µM
  TGI: 25.5 µM
[57]
  GI50: 3.17 µM
  TGI: 9.45 µM
